The values that follow come from US3989746A, “Substituted naphthyl anthranilic acids” (Ikeda Mohando Co., Ltd., priority 1972, dated 1976).

Each structure is given as a SMILES string.

For one data set, the system named is Carragheenin foot edema. As to the kind of experiment: Carragheenin foot edema. The data set is classed as in vivo, rats (male, Wister type). The note with it: Rattus norvegicus; 100 mg/Kg oral, 1 h before carragheenin; foot volume 3 h after injection; read-out: Anti-Inflammatory Effect Control Ratio, Carragheenin Foot Edema. Here is the method:
a. Carragheenin food edema
The test was conducted according to the method of C. […] Groups of rats (male rats of the Wister type having a body weight of 140-170 g), each group consisting of 5 to 11 rats, were caused to abstain from food for 16 hours, and a 4% gum arabic suspension of a test compound was orally administered to the rats in an amount of 100 mg/Kg. of the test compounds. Immediately, rats were allowed to drink 5 ml of purified water. […] After 3 hours had passed from the injection, the volume of the right foot was measured again to determine the increase of the volume of the right foot. In control groups, only a 4% gum arabic liquor free of a test compound was orally administered, and subsequent procedures were conducted similarly to determine the increase of the volume of the right foot. The carragheenin foot edema control ratio was calculated according to the following formula: [formula] wherein C indicates the foot volume increase in the control group and D indicates the foot volume increase in the test compound-administered group.

Data set [1] can be described thus: in vivo. The note with it: mouse, in vivo, po. Here is the method:
(§1) With respect to the foregoing test compounds, the acute toxicity was examined by employing mice according to the following method.
(§2) Groups of male mice of the dd type having a body weight of 18 to 22 g, each, group consisting of 5 mice, were tested to determine the acute toxicity. The test compound was orally administered in a dosage indicated in Table 3a in the form suspended in 5% gum arabic liquor. The determination was conducted 7 days after the administration. Further, the LD50 values were calculated according to the method of Lichfield-Wilcoxon.

In the next data set the test system is male mice. The data set can be described thus: in vivo. The note with it: 7 days. Here is the method:
as §1, §2

For the next data set, the system named is Ultraviolet erythema. The data set can be described thus: Ultraviolet erythema. It counts as in vivo, guinea pigs (male, Hartley type). The note with it: Cavia porcellus, light or radiation study; 10 mg/Kg oral, 1 h before irradiation; read 3 h after irradiation; read-out: Anti-Inflammatory Effect Control Ratio, Ultraviolet Erythema. Here is the method: The test was conducted according to a modification of the method of C. […] Groups of guinea pigs (male guinea pigs of the Hartley type having a body weight of 300 to 450 g), each group consisting of 5 to 10 guinea pigs, were employed for the test. Hairs were removed from backs of the guinea pigs by an electric hair-clipper and a depilatory agent. The guinea pigs were caused to abstain from food for 18 to 19 hours, and a test compound was orally administered in an amount of 10 mg/Kg in the form suspended in a 4% gum arabic liquor. In the case of control groups, only a 4% gum arabic liquor was administered. An adhesive plaster according to the Japanese pharmacopoeia, on which three small holes having a diameter of 5 mm were opened, was applied to the hair-removed portion of the back. […] When 3 hours had passed from the irradiation, the degree of the formation of erythema was determined. One point was given to the guinea pig on which a definite round erythema was formed, a point of 0.5 was given to the guinea pig on which formation of erythema was observed but its contour was not definite, and a point of 0 was given to the guinea pig on which no erythema was formed. Total points were calculated in both the test compound-administered group and the control group, and the control ratio was calculated from these total points. [formula]

Another data set has as its system Adjuvant arthritis. As to the kind of experiment: Adjuvant arthritis. It counts as in vivo, rats (female, Wister type). The conditions noted are these: Rattus norvegicus, 552 h; 9 mg/Kg per day oral for 25 days; foot volume on 23rd day from adjuvant injection; read-out: Anti-Inflammatory Effect Control Ratio, Adjuvant Arthritis. Here is the method: With respect to the foregoing compounds, anti-inflammatory effects against carragheenin foot edema, ultraviolet erythema and adjuvant arthritis were tested by using rate according to the following methods to obtain results shown below.
The test was conducted according to a modification of the method of B. B. Newbould (Brit. J. Pharmacol., 21, 127 (1963)). Groups of female rats of the Wister type having a body weight of 180 - 240 g, each group consisting of 4 to 8 rats, were tested. 0.05 ml of an adjuvant (formed by suspending 5 mg of dead tuberculous bacillus, Aoyama B strain, in 1 ml of fluid paraffin according to the Japanese pharmacopoeia) was hypodermically injected in the right foot heel of each rat. A test compound was orally administered in a dosage of 9 mg/Kg per day in the form suspended in a 5% gum arabic liquor continuously for 25 days from one day before the injection of the adjuvant. In the case of the control group, only a 5% gum arabic liquor was continuously administered in the same manner. The volume of the right foot was measured 1 day before the injection of the adjuvant and on the 23rd day from the injection of the adjuvant with respect to each group. Thus, the increase of the foot volume was calculated in either the test compound-administered group or the control group, and the ratio of control of the adjuvant arthritis was calculated according to the following formula: [formula] in which C is the increase of the volume of the right foot in the control group and D indicates the increase of the volume of the right foot in the test compound-administered rat group.

For a further data set, the system named is inflammatory pain. As to the kind of experiment: Analgesic effect on inflammatory pain (modified Randall and Selitto). The conditions noted are these: 100 mg/Kg oral, 1 hour before carragheenin; pain measured 3 hours after injection. It counts as in vivo, rats (male, Wister type). Here is the method:
Groups of male rats of the Wister type having a body weight of about 150 g were tested, each group consisting of 5 rats. The rats were caused to abstain from food overnight, and 0.05 ml of a 1% carragheenin solution was hypodermically injected into the right hind leg of each rat. […] The test compound was orally administered in a dosage of 100 mg/Kg 1 hour before the injection of carragheenin. [formula]

The nature of data set [2]: in vivo. The note with it: rat, po.

Broadly, the LD50 is the dose at which mortality reaches 50%. The low end stands for a more toxic substance, the high end for a less toxic substance. For the compound `O=C(O)c1ccccc1Nc1ccc(Cl)c2ccccc12` [Compound 1, n-(4-chloro-1-naphthyl)anthranilic acid], the inhibition in vivo at 100 mg/kg with Carragheenin foot edema amounted to 25.7%. In “in vivo [1]”, this compound displayed a median lethal dose (LD50) at 168 h greater than 12000 mg/kg. The “Number of Dead Mice/Number of Mice Tested” value is 0 / 5 in the data set on male mice (1 g/kg oral), 0 / 5 in the data set with male mice (2 g/kg oral), 0 / 5 with male mice (3 g/kg oral) and 3 / 5 in the data set with male mice (4 g/kg oral). The inhibition in vivo at 10 mg/kg in the data set on Ultraviolet erythema came out at 38%. The inhibition in vivo at 9 mg/kg in the data set with Adjuvant arthritis is 7.5%. Besides, in the data set with inflammatory pain, the “Analgesic Coefficient” value came to 1.36. Moreover, the LD50 in the data set “in vivo [2]” is greater than 10000 mg/kg.

As for `O=C(O)c1ccccc1Nc1c(Cl)cc(Cl)c2ccccc12` [Compound 2, N-(2,4-dichloro-1-naphthyl)anthranilic acid], the inhibition in vivo at 100 mg/kg in the data set with Carragheenin foot edema turned out to be 27%. Besides, the LD50 at 168 h in “in vivo [1]” is greater than 12000 mg/kg. The “Number of Dead Mice/Number of Mice Tested” value in the data set on male mice (1 g/kg oral), in the data set with male mice (2 g/kg oral), in the data set with male mice (3 g/kg oral) and with male mice (4 g/kg oral) was 0 / 5 each time. In addition, the inhibition in vivo at 10 mg/kg in the data set on Ultraviolet erythema was 68.9%. Moreover, the inhibition in vivo at 9 mg/kg in the data set on Adjuvant arthritis is 53.5%. Further, in the data set with inflammatory pain, the “Analgesic Coefficient” value was determined as 1.70. The LD50 in “in vivo [2]” was determined as 8500 mg/kg.

Consider `O=C(O)c1ccccc1Nc1cccc(C(F)(F)F)c1` [Compound F, flufenamic acid, reference compound], for which the inhibition in vivo at 100 mg/kg in the data set with Carragheenin foot edema was 60.7%. In addition, the LD50 at 168 h in the data set “in vivo [1]” turned out to be 545 mg/kg. Besides, the “Number of Dead Mice/Number of Mice Tested” value in the data set on male mice (1 g/kg oral) and in the data set on male mice (2 g/kg oral) was 5 / 5 each time. Also, the inhibition in vivo at 10 mg/kg in the data set with Ultraviolet erythema was found to be 60%. Also, the inhibition in vivo at 9 mg/kg in the data set with Adjuvant arthritis stood at 72.4%. Also, the “Analgesic Coefficient” value in the data set on inflammatory pain is 1.42. This compound also returned an LD50 in the data set “in vivo [2]” of 270 mg/kg.
